In patent publication US10555536B2, “Crop fortification, nutrition and crop protection composition” (priority 2017, dated 2020):

Tested on: Groundnut
Assay: Field trial on groundnut, protein content of seeds
Parameters: species or system Groundnut GG-2 variety
Conditions: in vivo
Text: Field Trial Study of Treatments with Spirulina Compositions on Groundnut by Soil Drenching. Trials were laid in Ishvarpura (Idar) village, Dist.-Sabarkantha, Gujarat, India, to evaluate various compositions for treatment of Groundnut GG-2 variety. The plot size was 3828 m2. All the recommended agronomic practices were followed. All the treatments were applied by Soil drenching. Also, no urea or any other chemical fertilizer was applied in the trial and in the previous crop. Thus, the parts where compositions of the present invention were applied were free of chemical nutrient for over a year.

SMILES: NC(N)=O [Urea]
- Protein content of Groundnut Seeds %: 48.884%
